Test results published in patent US9783509B2, “Six-membered C-N-linked aryl sulfide derivatives and aryl sulfoxide derivatives as pest conrol agents” (BAYER CROPSCIENCE AKTIENGESELLSCHAFT, priority 2013, dated 2017).
Where two headings read alike, the source gives them in different places.

Assays:
[1] = test system: southern root-knot nematode (Meloidogyne incognita); assay: Meloidogyne incognita test (sand, lettuce, acetone solvent, 14 days); format: in vivo; conditions: application rate 20 ppm, after 14 days
Procedure, shortened: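 Active ingredient in acetone diluted with water, added to sand with nematode egg/larvae suspension and lettuce seeds. Efficacy scored after 14 days from root gall formation (100% = no galls; 0% = as untreated control).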

[2] = test system: larvae of the mustard beetle (Phaedon cochleariae); assay: Phaedon cochleariae spray test; format: in vivo; conditions: application rate 500 g/ha, after 7 days
Method: Phaedon cochleariae—Spray Test
Solvent: 78.0 parts by weight of acetone • • 1.5 parts by weight of dimethylformamide
(§1) Emulsifier: alkylaryl polyglycol ether
(§2) To produce an appropriate active ingredient formulation, 1 part by weight of active ingredient is dissolved using the specified parts by weight of solvent and made up with water containing an emulsifier concentration of 1000 ppm until the desired concentration is attained. To produce further test concentrations, the preparation is diluted with emulsifier-containing water.
Discs of Chinese cabbage leaves (Brassica pekinensis) are sprayed with an active ingredient formulation of the desired concentration and, after drying, populated with larvae of the mustard beetle (Phaedon cochleariae).
After 7 days, the efficacy in % is determined. 100% means that all the beetle larvae have been killed; 0% means that no beetle larvae have been killed.

[3] = test system: greenhouse red spider mite (Tetranychus urticae); assay: Tetranychus urticae spray test, OP-resistant (bean plants); format: in vivo; conditions: application rate 20 ppm, after 7 days
Method: Tetranychus urticae—Spray Test, OP-Resistant
(§3) Solvent: 7 parts by weight of dimethylformamide
as §1
as §2, with “water. If the addition of ammonium salts or/and penetrants is required, these are each added in a concentration of 1000 ppm to the formulation solution.” for “water.”
Bean plants (Phaseolus vulgaris) heavily infested by all stages of the greenhouse red spider mite (Tetranychus urticae) are treated by spraying with the active ingredient formulation in the desired concentration.
After 7 days, the efficacy in % is determined. 100% means that all the spider mites have been killed; 0% means that none of the spider mites have been killed.

[4] = log P by reversed-phase HPLC analogously to OECD Guideline 117; format: physicochemical; conditions: for LogP[a] / chromatographic logP: [a] acidic range; for LogP[b]: [b] neutral range, pH 7.8, ammonium hydrogencarbonate/acetonitrile; for chromatographic logP: reversed-phase C18 HPLC column
Procedure, shortened: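 Retention on reversed-phase C18 HPLC (LC-MS), acidic runs at pH 2.7 with formic acid or trifluoroacetic acid/acetonitrile gradients, neutral runs at pH 7.8 with 0.001 molar ammonium hydrogencarbonate/acetonitrile. log P obtained by linear interpolation of retention times against unbranched alkan-2-ones (C3–C16) of known log P.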

[5] = test system: southern root-knot nematode (Meloidogyne incognita); assay: Meloidogyne incognita test (soil drench, lettuce, 21 days); format: in vivo; conditions: application rate 8 ppm, after 21 days
Method: Meloidogyne incognita Test
as §3
Emulsifier: 2.5 parts by weight of alkylaryl polyglycol ether
To produce an appropriate active ingredient formulation, 1 part by weight of active ingredient is mixed with the stated amounts of solvent and emulsifier, and the concentrate is diluted with water to the desired concentration, it being necessary to include the volume of soil which is drenched in the calculation. It should be noted that a concentration of 20 ppm of emulsifier in the soil is not exceeded. To produce further test concentrations, water is used for dilution.
Pots filled with soil (loamy sand) are watered with the active ingredient solution. An egg/larvae suspension of the southern root-knot nematode (Meloidogyne incognita) is added, lettuce seeds are scattered over the surface of the soil, and they are covered over with quartz sand. The lettuce seeds germinate and the plants develop. The galls develop on the roots
After 21 days, the nematicidal efficacy in % is determined by the formation of galls. 100% means that no galls have been found; 0% means that the number of galls on the treated plants corresponds to the untreated control.

[6] = test system: green peach aphid (Myzus persicae); assay: Myzus persicae spray test (Chinese cabbage leaf discs); format: in vivo; conditions: application rate 500 g/ha, after 6 days
Method: (§4) Myzus persicae—Spray Test
Solvent: 78 parts by weight of acetone • • 1.5 parts by weight of dimethylformamide
as §1, §2
Discs of Chinese cabbage leaves (Brassica pekinensis) infested by all stages of the green peach aphid (Myzus persicae) are sprayed with an active ingredient formulation of the desired concentration.
After 6 days, the efficacy in % is determined 100% means that all the aphids have been killed; 0% means that none of the aphids have been killed.

[7] = test system: greenhouse red spider mite (Tetranychus urticae); assay: Tetranychus urticae spray test, OP-resistant (bean leaf discs); format: in vivo; conditions: after 6 days
Procedure, shortened: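 Compound dissolved in acetone/DMF and diluted in water with 1000 ppm alkylaryl polyglycol ether emulsifier, then sprayed on bean leaf discs infested with all stages of OP-resistant T. urticae. Mortality in % scored after 6 days (100% = all mites killed).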

[8] = test system: green peach aphid (Myzus persicae); assay: Myzus persicae spray test (bell pepper plants); format: in vivo; conditions: application rate 20 ppm, after 6 days
Method: as §4, §3, §1
as §2, with “water. If the addition of ammonium salts or/and penetrants is required, these are each added in a concentration of 1000 ppm to the formulation solution.” for “water.”
Bell pepper plants (Capsicum annuum) heavily infested by the green peach aphid (Myzus persicae) are treated by spraying with the active ingredient formulation in the desired concentration.
After 6 days, the kill in % is determined. 100% means that all the aphids have been killed; 0% means that no aphids have been killed.

[9] = test system: engorged adult female cattle ticks (Boophilus microplus); assay: Boophilus microplus injection test; format: in vivo; conditions: application rate 20 μg/animal, assessed after 7 days
Method: Boophilus microplus—Injection Test
Solvent: dimethyl sulphoxide
To produce an appropriate active ingredient formulation, 10 mg of active ingredient are mixed with 0.5 ml of solvent and the concentrate is diluted with solvent to the desired concentration.
1 μl of the active ingredient solution is injected into the abdomen of 5 engorged adult female cattle ticks (Boophilus microplus). The animals are transferred into dishes and kept in a climate-controlled room.
The efficacy is assessed after 7 days by laying of fertile eggs. Eggs which are not visibly fertile are stored in a climate-controlled cabinet until the larvae hatch after about 42 days. An efficacy of 100% means that none of the ticks has laid any fertile eggs; 0% means that all the eggs are fertile.

[10] = test system: adult cat fleas (Ctenocephalides felis); assay: Ctenocephalides felis in vitro contact test with adult cat fleas; format: in vivo; conditions: application rate 5 μg/cm^2 (=500 g/ha), after 48 h
Method: Ctenocephalides felis—In Vitro Contact Tests with Adult Cat Fleas
For the coating of the test tubes, 9 mg of active ingredient are first dissolved in 1 ml of acetone p.a. and then diluted to the desired concentration with acetone p.a. 250 μl of the solution are distributed homogeneously on the inner walls and base of a 25 ml test tube by turning and rocking on an orbital shaker (rocking rotation at 30 rpm for 2 h). With 900 ppm active ingredient solution and internal surface 44.7 cm^2, given homogeneous distribution, an area-based dose of 5 μg/cm^2 is achieved.
After the solvent has been evaporated off, the tubes are populated with 5-10 adult cat fleas (Ctenocephalides felis), sealed with a perforated plastic lid and incubated in a horizontal position at room temperature and ambient humidity. After 48 h, the efficacy is determined. To this end, the test tubes are stood upright and the fleas are knocked to the base of the tube. Fleas which remain motionless at the base or move in an uncoordinated manner are considered to be dead or moribund.
100% efficacy means that all the fleas were dead or moribund. 0% efficacy means that no fleas were harmed.

[11] = pH 2.7, formic acid (or trifluoroacetic acid)/acetonitrile

Row | Structure (SMILES) | nematicidal efficacy (formation of galls) [1] | efficacy (beetle larvae killed) [2] | LogP[a] [4, 11] | LogP[b] [4] | efficacy (aphids killed) [6] | efficacy (spider mites killed) ([7]; application rate 500 g/ha) | also measured
1 | Cc1cc(F)c(-n2ccc(=O)n(CC(F)(F)F)c2=O)cc1[S+]([O-])CC(F)(F)F (racemic) [compound 60] | 100% | 100% | 2.31 | 2.34 | – | – | efficacy (spider mites killed) [3]: 100%
2 | Cc1cc(F)c(-n2ncc(=O)n(CC(F)(F)F)c2=O)cc1[S+]([O-])CC(F)(F)F (single isomer, unassigned) [compound 50] | – | – | 2.62 | 2.57 | – | – | nematicidal efficacy (formation of galls) [5]: 99%; efficacy (spider mites killed) [3]: 100%
3 | Cc1cc(F)c(-n2ncc(=O)n(Cc3cccnc3)c2=O)cc1[S+]([O-])CC(F)(F)F (racemic) [compound 49] | – | – | 1.47 | 2.00 | 90% | – | –
4 | Cc1cc(F)c(-n2ncc(=O)n(CC3CC3)c2=O)cc1[S+]([O-])CC(F)(F)F (racemic) [compound 27] | 100% | 100% | 2.72 | 2.65 | – | 100% | –
5 | Cc1cc(F)c(-n2ncc(=O)n(CC#N)c2=O)cc1[S+]([O-])CC(F)(F)F (racemic) [compound 44] | – | – | 2.02 | 1.96 | 90% | – | efficacy (spider mites killed) [3]: 95%
6 | Cn1c(=O)cnn(-c2ccc(Cl)c(SCC(F)(F)F)c2)c1=O [compound 31] | – | – | 3 | 2.91 | – | – | efficacy (spider mites killed) ([7]; application rate 100 g/ha): 100%; efficacy (kill of aphids) [8]: 97%
7 | Cc1cc(F)c(-n2ncc(=O)n(Cc3cccnc3)c2=O)cc1SCC(F)(F)F [compound 43] | – | – | 2.36 | 2.87 | 90% | 90% | –
8 | C#CCn1c(=O)ccn(-c2cc(SCC(F)(F)F)c(C)cc2F)c1=O [compound 79] | 100% | 100% | 2.78 | 2.81 | – | 90% | –
9 | Cc1cc(F)c(-n2ncc(=O)n(CC(F)(F)F)c2=O)cc1SCC(F)(F)F [compound 10] | 100% | 83% | 3.65 | – | – | 90% | efficacy (no fertile eggs laid) [9]: 100%
10 | Cn1c(=O)cnn(-c2ccc(Cl)c(SCC(F)(F)F)c2)c1=O [compound 32] | – | – | 2.18 | 2.16 | 90% | 100% | –
11 | Cc1cc(F)c(-n2ncc(=O)n(C)c2=O)cc1[S+]([O-])CC(F)(F)F (single isomer, unassigned; (+)) [Ex. No. 29, (+)-2-[2-fluoro-4-methyl-5-(2,2,2-trifluoroethylsulphinyl)phenyl]-4-methyl-1,2,4-triazine-3,5-dione] | – | – | 1.95 | 1.9 | – | – | efficacy (no fertile eggs laid) [9]: 100%; nematicidal efficacy (formation of galls) [5]: 100%; efficacy (spider mites killed) [3]: 100%
12 | Cc1cc(F)c(-n2ncc(=O)n(C)c2=O)cc1[S+]([O-])CC(F)(F)F (centres unmarked) [Ex. No. 2, 2-{2-Fluoro-4-methyl-5-[(2,2,2-trifluoroethyl)sulphinyl]phenyl}-4-methyl-1,2,4-triazine-3,5(2H,4H)-dione] | – | – | – | – | – | – | efficacy (fleas dead or moribund) [10]: 100%; efficacy (no fertile eggs laid) [9]: 100%; pest or weed control at 20 ppm ([1]; Meloidogyne incognita, 336 h, read-out: nematicidal efficacy (formation of galls)): 90%; pest or weed control at 500 g/ha ([7]; Tetranychus urticae, foliar, 144 h, application rate 500 g/ha, read-out: efficacy (spider mites killed)): 90%; chromatographic logP ([4]; pH 2.7, running text, pH 2.7, read-out: log P[a]): 1.94; chromatographic logP ([4]; pH 2.7, table column, pH 2.7, formic acid (or trifluoroacetic acid)/acetonitrile, read-out: LogP[a]): 1.94
13 | Cc1cc(F)c(-n2ncc(=O)n(CC3CC3)c2=O)cc1SCC(F)(F)F [compound 25] | 100% | 100% | 3.79 | 3.76 | – | 100% | –
14 | Cc1cc(F)c(-n2ncc(=O)n(Cc3ccc[n+]([O-])c3)c2=O)cc1[S+]([O-])CC(F)(F)F (racemic) [compound 48] | – | – | 1.51 | 1.45 | 90% | – | –
